IC50 data for one molecule are collected here from PubChem BioAssay AID743377 (Vanderbilt Specialized Chemistry Center, 2014).

Each structure is given as a SMILES string. The source made the active and inactive calls. No rule for the calls is given here.

The target in the assay is D(2) dopamine receptor (Homo sapiens) (UniProt P14416). As to the kind of experiment: human DRD2 long isoform antagonists – cell-based, D2L isoform, counter-screen for D4 antagonist project, confirmation (AID 743377). The settings on record: D2L-expressing cells, antagonist counterscreen, functional read-out.
Sequence of D(2) dopamine receptor (Homo sapiens) (P14416 whole entry, looked up, canonical isoform): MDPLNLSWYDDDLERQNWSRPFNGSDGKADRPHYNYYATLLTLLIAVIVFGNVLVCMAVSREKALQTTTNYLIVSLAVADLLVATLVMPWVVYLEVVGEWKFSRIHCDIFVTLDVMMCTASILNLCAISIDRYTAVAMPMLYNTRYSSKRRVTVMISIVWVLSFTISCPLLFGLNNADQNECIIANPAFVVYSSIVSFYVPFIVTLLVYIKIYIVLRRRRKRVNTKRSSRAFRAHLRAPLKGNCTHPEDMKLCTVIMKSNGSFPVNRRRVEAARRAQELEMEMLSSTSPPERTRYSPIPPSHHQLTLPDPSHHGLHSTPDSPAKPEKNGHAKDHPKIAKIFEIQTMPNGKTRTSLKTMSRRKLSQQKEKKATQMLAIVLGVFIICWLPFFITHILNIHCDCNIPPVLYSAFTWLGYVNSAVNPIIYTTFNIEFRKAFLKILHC

Regarding `Clc1ccc(CN2CCO[C@H](CCc3ccccc3)C2)cc1`, the IC50 is > 20 µM (inactive).
